Results as given in BindingDB's records for doi:10.1007/pl00005056 (Smithkline Beecham Pharmaceuticals, 1997).
Where “and” joins values, the source holds several entries; their conditions need not be identical. Identical values can stand only once.

Tests used:
[1] = target: 5-hydroxytryptamine receptor 2A (Homo sapiens, UniProt P28223)
[2] = target: 5-hydroxytryptamine receptor 6 (Homo sapiens, UniProt P50406)
[3] = target: 5-hydroxytryptamine receptor 1B (Homo sapiens, UniProt P28222)
[4] = target: 5-hydroxytryptamine receptor 1D (Homo sapiens, UniProt P28221)
[5] = target: 5-hydroxytryptamine receptor 2B (Homo sapiens, UniProt P41595)
[6] = target: 5-hydroxytryptamine receptor 7 (Homo sapiens, UniProt P34969)
[7] = target: 5-hydroxytryptamine receptor 1E (Homo sapiens, UniProt P28566)
[8] = target: T1, 5-hydroxytryptamine receptor 1F (Homo sapiens, UniProt P30939)
T1 sequence (P30939 whole entry): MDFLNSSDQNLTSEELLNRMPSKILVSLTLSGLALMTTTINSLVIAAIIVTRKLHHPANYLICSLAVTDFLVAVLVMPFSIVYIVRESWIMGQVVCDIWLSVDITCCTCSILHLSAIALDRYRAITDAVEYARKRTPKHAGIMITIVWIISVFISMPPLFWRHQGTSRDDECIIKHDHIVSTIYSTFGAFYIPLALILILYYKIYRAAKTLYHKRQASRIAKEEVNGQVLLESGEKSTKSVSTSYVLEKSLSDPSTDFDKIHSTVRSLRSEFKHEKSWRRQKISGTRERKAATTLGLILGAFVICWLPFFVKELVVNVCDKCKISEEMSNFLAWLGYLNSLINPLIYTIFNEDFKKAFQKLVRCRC

[9] = target: T2, 5-hydroxytryptamine receptor 2C (Homo sapiens, UniProt P28335)
T2 sequence (P28335 whole entry): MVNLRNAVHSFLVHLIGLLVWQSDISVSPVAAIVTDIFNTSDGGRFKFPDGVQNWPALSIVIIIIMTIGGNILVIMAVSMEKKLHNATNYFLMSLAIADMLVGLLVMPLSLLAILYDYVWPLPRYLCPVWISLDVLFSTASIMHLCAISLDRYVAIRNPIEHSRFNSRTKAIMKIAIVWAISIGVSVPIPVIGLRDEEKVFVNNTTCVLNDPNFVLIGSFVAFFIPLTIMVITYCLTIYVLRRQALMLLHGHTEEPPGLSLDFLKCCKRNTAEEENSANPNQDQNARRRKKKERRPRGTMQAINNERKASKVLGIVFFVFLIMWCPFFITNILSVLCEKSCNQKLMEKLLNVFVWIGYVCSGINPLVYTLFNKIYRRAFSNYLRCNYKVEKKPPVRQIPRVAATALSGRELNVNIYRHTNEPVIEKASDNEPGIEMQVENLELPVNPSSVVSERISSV

[10] = target: T3, 5-hydroxytryptamine receptor 1A (Homo sapiens, UniProt P08908)
T3 sequence (P08908 whole entry): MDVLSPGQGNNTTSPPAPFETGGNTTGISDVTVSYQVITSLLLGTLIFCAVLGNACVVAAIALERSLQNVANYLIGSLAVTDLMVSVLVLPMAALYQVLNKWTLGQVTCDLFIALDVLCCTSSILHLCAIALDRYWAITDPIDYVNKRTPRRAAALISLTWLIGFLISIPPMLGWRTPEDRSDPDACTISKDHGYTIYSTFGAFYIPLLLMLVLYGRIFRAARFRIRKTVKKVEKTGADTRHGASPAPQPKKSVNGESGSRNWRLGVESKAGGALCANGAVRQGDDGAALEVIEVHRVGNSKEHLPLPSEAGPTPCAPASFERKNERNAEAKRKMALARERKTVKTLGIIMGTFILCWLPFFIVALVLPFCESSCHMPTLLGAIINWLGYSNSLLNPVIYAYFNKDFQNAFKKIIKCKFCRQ

Sequence of 5-hydroxytryptamine receptor 2B (P41595 whole entry): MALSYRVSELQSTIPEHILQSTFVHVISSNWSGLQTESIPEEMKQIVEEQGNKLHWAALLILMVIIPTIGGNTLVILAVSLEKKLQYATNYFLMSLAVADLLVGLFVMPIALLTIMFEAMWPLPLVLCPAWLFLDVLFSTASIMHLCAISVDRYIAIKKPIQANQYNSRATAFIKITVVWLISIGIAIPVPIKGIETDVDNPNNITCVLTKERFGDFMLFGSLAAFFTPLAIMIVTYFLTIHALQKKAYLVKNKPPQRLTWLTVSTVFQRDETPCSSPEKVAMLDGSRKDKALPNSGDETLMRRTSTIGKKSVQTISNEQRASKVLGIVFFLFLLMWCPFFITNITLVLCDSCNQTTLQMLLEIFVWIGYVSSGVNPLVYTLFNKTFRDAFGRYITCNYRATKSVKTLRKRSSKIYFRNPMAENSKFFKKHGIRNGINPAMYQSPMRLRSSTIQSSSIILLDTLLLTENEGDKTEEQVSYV
Sequence of 5-hydroxytryptamine receptor 6 (P50406 whole entry): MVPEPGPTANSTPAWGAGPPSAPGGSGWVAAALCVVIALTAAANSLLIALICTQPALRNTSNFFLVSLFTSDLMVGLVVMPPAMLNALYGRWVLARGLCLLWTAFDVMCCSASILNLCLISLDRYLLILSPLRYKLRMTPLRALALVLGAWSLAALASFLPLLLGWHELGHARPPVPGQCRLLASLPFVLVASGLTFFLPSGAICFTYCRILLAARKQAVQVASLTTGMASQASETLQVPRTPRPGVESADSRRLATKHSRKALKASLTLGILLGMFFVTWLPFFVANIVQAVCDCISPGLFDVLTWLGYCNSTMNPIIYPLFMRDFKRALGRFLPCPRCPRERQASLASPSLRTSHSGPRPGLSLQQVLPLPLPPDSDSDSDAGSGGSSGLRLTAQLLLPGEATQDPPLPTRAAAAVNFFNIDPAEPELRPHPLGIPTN
Sequence of 5-hydroxytryptamine receptor 1B (P28222 whole entry): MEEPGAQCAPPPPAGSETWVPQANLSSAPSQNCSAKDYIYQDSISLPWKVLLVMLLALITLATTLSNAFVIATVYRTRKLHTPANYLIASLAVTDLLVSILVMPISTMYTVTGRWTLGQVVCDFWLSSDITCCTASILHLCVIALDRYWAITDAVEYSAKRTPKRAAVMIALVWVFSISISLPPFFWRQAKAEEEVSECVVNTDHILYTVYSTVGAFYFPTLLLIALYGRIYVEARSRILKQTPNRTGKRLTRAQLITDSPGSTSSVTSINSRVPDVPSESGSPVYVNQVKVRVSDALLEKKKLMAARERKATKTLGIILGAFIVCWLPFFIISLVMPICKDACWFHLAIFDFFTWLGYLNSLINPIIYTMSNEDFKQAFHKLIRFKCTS
Sequence of 5-hydroxytryptamine receptor 1E (P28566 whole entry): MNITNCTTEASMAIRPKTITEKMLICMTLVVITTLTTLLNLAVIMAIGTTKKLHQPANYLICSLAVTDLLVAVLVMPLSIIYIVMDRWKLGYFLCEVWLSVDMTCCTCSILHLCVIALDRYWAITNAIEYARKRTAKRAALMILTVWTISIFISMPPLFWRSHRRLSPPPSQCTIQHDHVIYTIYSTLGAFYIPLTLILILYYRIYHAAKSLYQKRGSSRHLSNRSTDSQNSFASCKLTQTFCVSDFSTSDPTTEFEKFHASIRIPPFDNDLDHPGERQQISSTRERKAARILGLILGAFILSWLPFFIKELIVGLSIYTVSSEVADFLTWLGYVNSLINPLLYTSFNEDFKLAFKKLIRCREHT
Sequence of 5-hydroxytryptamine receptor 2A (P28223 whole entry): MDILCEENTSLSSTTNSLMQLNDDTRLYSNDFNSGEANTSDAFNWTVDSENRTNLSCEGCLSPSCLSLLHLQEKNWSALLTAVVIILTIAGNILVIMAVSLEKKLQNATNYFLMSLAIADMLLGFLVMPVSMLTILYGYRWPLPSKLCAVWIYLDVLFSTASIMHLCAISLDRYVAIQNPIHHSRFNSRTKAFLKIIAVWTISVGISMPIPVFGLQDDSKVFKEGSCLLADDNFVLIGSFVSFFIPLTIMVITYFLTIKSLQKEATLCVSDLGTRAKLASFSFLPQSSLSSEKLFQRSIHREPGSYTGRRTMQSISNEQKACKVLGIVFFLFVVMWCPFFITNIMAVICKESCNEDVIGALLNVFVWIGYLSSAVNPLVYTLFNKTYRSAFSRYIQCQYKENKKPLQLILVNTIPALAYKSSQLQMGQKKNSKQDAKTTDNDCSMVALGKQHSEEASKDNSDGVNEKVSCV
Sequence of 5-hydroxytryptamine receptor 7 (P34969 whole entry): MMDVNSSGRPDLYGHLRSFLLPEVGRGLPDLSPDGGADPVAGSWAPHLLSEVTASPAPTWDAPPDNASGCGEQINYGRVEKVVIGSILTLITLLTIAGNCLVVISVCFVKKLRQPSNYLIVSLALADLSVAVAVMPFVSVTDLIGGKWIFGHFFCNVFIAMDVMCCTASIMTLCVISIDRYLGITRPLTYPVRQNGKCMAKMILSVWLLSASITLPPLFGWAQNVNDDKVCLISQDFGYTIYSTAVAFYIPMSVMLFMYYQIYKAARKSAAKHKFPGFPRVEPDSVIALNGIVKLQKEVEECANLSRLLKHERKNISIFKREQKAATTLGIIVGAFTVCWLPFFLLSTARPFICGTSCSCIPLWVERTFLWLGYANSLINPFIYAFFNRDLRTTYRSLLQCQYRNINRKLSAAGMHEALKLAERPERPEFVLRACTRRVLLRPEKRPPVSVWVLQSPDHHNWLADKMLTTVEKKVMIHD
Sequence of 5-hydroxytryptamine receptor 1D (P28221 whole entry): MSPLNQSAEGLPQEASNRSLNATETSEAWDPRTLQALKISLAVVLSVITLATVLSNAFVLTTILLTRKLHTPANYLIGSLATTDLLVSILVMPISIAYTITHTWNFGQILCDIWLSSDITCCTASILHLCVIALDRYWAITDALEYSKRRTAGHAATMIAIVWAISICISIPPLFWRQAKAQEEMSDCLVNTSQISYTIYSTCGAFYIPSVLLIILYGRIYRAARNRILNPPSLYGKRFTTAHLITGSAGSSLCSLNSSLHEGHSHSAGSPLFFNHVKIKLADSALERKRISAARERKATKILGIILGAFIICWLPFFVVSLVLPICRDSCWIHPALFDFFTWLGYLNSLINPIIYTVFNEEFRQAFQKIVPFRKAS

SMILES | Ki [1] | Ki [2] | Ki [3] | Ki [4] | Ki [5] | Ki [6] | Ki [7] | Ki [8] | Ki [9] | Ki [10]
OC(CN1CCN(c2cccc(Cl)c2)CC1)C(c1ccccc1)c1ccccc1 (stereo not drawn) | 251 nM | 1260 nM | 794 nM and 1260 nM | 12.6 nM and 7.94 nM | 39.8 nM | 501 nM | 6310 nM | 1000 nM | 631 nM | –
COc1ccc(NC(=O)c2ccc(-c3ccc(-c4noc(C)n4)cc3C)cc2)cc1OCCN(C)C [CAS_3292447] | 50.1 nM | 3160 nM | 1 nM and 7.94 nM | 25.1 nM and 12.6 nM | 1580 nM | > 10000 nM | 1000 nM | 1000 nM | 158 nM | 501 nM
COc1ccc(NC(=O)c2ccc(-c3ccc(-c4noc(C)n4)cc3C)cc2)cc1N1CCN(C)CC1 [SMR001230745] | 15.8 nM | 1580 nM | 1 nM and 7.94 nM | – | 631 nM | 631 nM | 3980 nM | 398 nM | 100 nM | 63.1 nM
